# Data taken from PMC4811302, “Human β-defensin 3 contains an oncolytic motif that binds PI(4,5)P2 to mediate tumour cell permeabilisation” (Oncotarget, 2015).
# Where no end group is shown, it is not given here.
# Assays:
# tumour lines = assay: Flow cytometry-based PI uptake assay, tumour lines; assay type: cell-based, human; settings: 50 μM HBD-3 (highest dose tested), 37°C, 30 min
# Experimental: (§1) Cells suspended at 1×10^6 cells/mL in serum-free medium containing 0.1% (w/v) bovine serum albumin (BSA) (Sigma-Aldrich) were treated with HBD-3 at 37°C for 30 min. Nucleic acid stain propidium iodide (PI) was then added to a final concentration of 1 μg/mL and cells subjected to flow cytometry analysis using BD FACSCanto II Flow Cytometer and BD FACSDiva Software v6.1.1 (BD Biosciences, San Jose, CA). For each flow cytometry reading, 10,000 cells, gated appropriately based on forward scattering and side scattering, were recorded. The resultant data were processed using FlowJo software (Tree Star, San Carlos, CA) to determine PI-positivity, which reflects the level of membrane permeabilisation. For lipid inhibition assays, 15 μM HBD-3 was pre-incubated with 50 μM synthetic lipids, including L-α-phosphatidic acid (PA), L-α-phosphatidylcholine (PC), L-α-phosphatidylethanolamine (PE), L-α-phosphatidylserine (PS), L-α-phosphatidylinositol-4-phosphate (PI(4)P), L-α-phosphatidylinositol-3,5-bisphosphate (PI(3,5)P2), L-α-phosphatidylinositol-4,5-bisphosphate (PI(4,5)P2) and L-α-phosphatidylinositol-3,4,5-trisphosphate (PI(3,4,5)P)3. All lipids were sourced from Avanti Polar Lipids, Alabaster, AL. […]
# [1] = test system: Primary cells, HUVEC, AHDF and CASMC; assay: Tetrazolium-based cell viability assay, primary cells; parameters: species or system human; settings: range over HUVEC, 48 h, MTT, estimated, three independent experiments
# Experimental: Human epithelial cervical cancer (HeLa), leukemic monocyte lymphoma (U937), prostate cancer (PC3), promyelocytic leukemia (HL-60), leukemic T cell lymphoblast (Jurkat) cells were cultured in RPMI-1640 medium supplemented with 5–10% (v/v) fetal calf serum (FCS), 100 U/mL penicillin and 100 μg/mL streptomycin (Invitrogen, Carlsbad, CA). Human umbilical vein […] cell (HUVEC) cells were cultured in M199 medium (Invitrogen) supplemented with 20% (v/v) FCS, 40 μg/mL gentamicin, 4 μg/mL endothelial cell growth factor, 4 μg/mL L-glutamine and 135 μg/mL heparin, in 0.1% (w/v) gelatin-coated Corning CELLBIND flask (Corning Life Sciences, Acton, MA). […]
# Different concentrations of HBD-3 were added to cells seeded in 96-well plates in appropriate complete medium. […] After 48 h, cell viability was determined using 3-(4,5-dimethylthiazol-2-yl)-2,5-diphenyltetrazolium bromide (MTT) (Sigma-Aldrich, MO) for adherent cells (HeLa, PC3, HUVEC, AHDF, CASMC) or 3-(4,5-dimethylthiazol-2-yl)-5-(3-carboxymethoxyphenyl)-2-(4-sulfophenyl)-2H-tetrazolium (MTS) (Promega, Madison, WI) coupled with phenzine methosulfate (PMS) (Promega) for suspension cells (U937, HL-60, Jurkat) prior to absorbance measurement at 570 nm and […], respectively. Absorbance readings of untreated control wells was designated as 100% cell viability.
# [2] = Transmission electron microscopy of fibril formation with PI(4,5)P2; settings: in vitro, data not shown
# [3] = test system: primary cell type (HUVEC, AHDF, CASMC); assay: Flow cytometry-based PI uptake assay, primary cell types; parameters: species or system human; settings: 50 μM HBD-3 (highest dose tested), each primary cell type, 37°C, 30 min
# Experimental: as §1
# U937 and HeLa cells = assay: Confocal laser scanning microscopy of membrane blebbing; assay type: cell-based, human; settings: 15 μM HBD-3, 15 min after addition, PKH67 and PI staining
# Experimental: Live imaging was performed on a Zeiss LSM-780 confocal microscope using a 63× oil immersion objective in a 37°C incubator with 5% CO2. Adherent HeLa cells were cultured overnight on coverslips while suspension U937 cells were immobilised onto 0.01% (w/v) poly-L-lysine-coated coverslips. Both cell types were prepared in serum-free RPMI 1640 medium containing 0.1% (w/v) BSA and 2 μg/mL PI. HBD-3 or BODIPY FL EDA-labeled HBD-3 was added directly to the imaging chamber to final concentration of 15 μM, via a capillary tube. In certain experiments, prior to imaging, cells were pre-stained with the membrane dye PKH67 as per manufacturer's instructions (Sigma-Aldrich) or transfected with expression vectors carrying GFP only or GFP-tagged Pleckstrin homology domain of phospholipase C-delta 1 (GFP-PH(PLCδ1)) (kindly provided by Christina Mitchell, Monash University, Australia), using Lipofectamine 3000 reagent (Invitrogen) as per manufacturer's instructions. For CLSM involving transfections, images were taken as 4×4 tiles over 30 min, and the resultant data for GFP and GFP-PH transfected cells were analysed by counting PI-positive cells.
# [4] = ATP-encapsulated liposome leakage assay, PC only; settings: bioluminescence, normalised to HEPES and Triton X-100
# Experimental: Liposomes were generated as described previously using natural PI(4,5)P2 (porcine brain, in chloroform:methanol:water at 20:9:1 molar ratio) and PC (chicken egg, in chloroform) purchased from Avanti Polar Lipids. PC only or PC:PI(4,5)P2 (95:5 molar ratio) solutions were dried under a stream of nitrogen gas followed by overnight vacuum-drying. The lipid films were rehydrated to a final concentration of 5 mg/mL in 20 mM HEPES (pH 7.2) containing 5 mg/mL adenosine-5-triphosphate disodium salt (ATP; Sigma-Aldrich) at 37°C for 1 h. After three subsequent cycles of freezing (liquid nitrogen) and thawing (25°C), multilamellar liposomes were extruded 15–20 times through a mini-extruder (Avanti Polar Lipids). Free ATP was removed by three centrifugal washes with 20 mM HEPES at 16,500 g prior to the ATP release assay. Liposomes treated with 1% Triton X-100 were included as positive control and assigned as total lysis, whereas HEPES only control served as background reading. The level of ATP release at a particular time point was determined by quotient of the corrected reading (after subtracting background) of the sample at that time point and corrected reading of total lysis, as per the following equation: % Lysist=Samplet−HEPESt/Triton X−HEPES×100
# HeLa cells = assay: ATP bioluminescence release assay, HeLa; assay type: cell-based, human; settings: HBD-3 titrations, bioluminescence for 30 min, PBS with 0.1% BSA, concentration-dependent
# Experimental: ATP release assay was conducted using an ATP bioluminescence assay kit (Roche Diagnostics, Mannheim, Germany). U937 and HeLa cells were suspended at 1×10^6 cells/mL in PBS containing 0.1% (w/v) BSA, and mixed with luciferase/luciferin reagent at a ratio of 4:5. The mixture was added to HBD-3 samples and the level of ATP release measured immediately as bioluminescence emission signal intensity for 30 min with 30 s intervals.
substance,measurement,setting,value
"human β-defensin 3 (GIINTLQKYYCRVRGGRCAVLSCLPKEEQIGKCSTRGRKCCRRKK; not fully specified; cysteine pairing not given here; UniProt P81534 23-67, looked up) [HBD-3, human β-defensin 3, cationic antimicrobial peptide, recombinantly expressed in P. pastoris]",cells permeabilised (PI-positive),tumour lines,at least 80%
same,IC50,[1],30 to 65 µM
same,"oligomerisation to fibrils on binding PI(4,5)P2",[2],not observed
same,cells permeabilised (PI-positive),[3],less than 20%
same,size of membrane blebs formed in PI-positive cells,U937 and HeLa cells,> 10 μm
same,ATP release from ATP-encapsulated liposomes,[4],minimally induced ATP release
same,cytoplasmic ATP release,HeLa cells,rapidly released
